The values below come from US9062078B2, “Substituted 7-azabicyles and their use as orexin receptor modulators” (priority 2013, dated 2015).

In assay [1] the target is rat orexin 1 receptor (Rattus norvegicus, UniProt P56718). As to the kind of experiment: Rat orexin 1 receptor radioligand binding (competitive, [3H]-SB674042, HEK293 cell preparations).
The target of assay [2] is human orexin 2 receptor (Homo sapiens (Human), UniProt O43614). Put plainly: Human orexin 2 receptor radioligand binding (competitive, [3H]-EMPA, HEK293 cell preparations).
Chain of human orexin 2 receptor (O43614 whole entry): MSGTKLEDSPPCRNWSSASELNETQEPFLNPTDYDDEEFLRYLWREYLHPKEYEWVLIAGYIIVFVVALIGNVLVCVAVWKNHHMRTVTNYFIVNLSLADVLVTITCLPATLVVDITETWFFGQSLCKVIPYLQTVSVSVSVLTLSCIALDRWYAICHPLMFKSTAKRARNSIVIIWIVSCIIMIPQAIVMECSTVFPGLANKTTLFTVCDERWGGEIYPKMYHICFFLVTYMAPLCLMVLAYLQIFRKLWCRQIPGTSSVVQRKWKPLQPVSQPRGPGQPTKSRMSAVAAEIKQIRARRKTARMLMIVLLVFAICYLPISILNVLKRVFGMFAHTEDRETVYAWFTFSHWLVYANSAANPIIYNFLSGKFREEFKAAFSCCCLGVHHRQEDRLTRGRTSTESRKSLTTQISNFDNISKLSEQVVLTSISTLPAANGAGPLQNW
[3] abbreviates: human orexin 2 receptor, [3H]-EMPA competition binding, read-out: hOX2 Ki (nm).
[4] abbreviates: rat orexin 1 receptor, [3H]-SB674042 competition binding, read-out: rOX1 Ki (nm).

Like-named read-outs stand apart in the source and are kept apart here.

By Ki is commonly meant the dissociation constant of the complex between target and ligand, obtained from inhibition or displacement. For `O=C(c1ncccc1-n1nccn1)N1C2CCC1C(COc1ccccn1)C2` (racemic) [Example 91, (±)-(3-(2H-1,2,3-triazol-2-yl)pyridin-2-yl)(2-((pyridin-2-yloxy)methyl)-7-azabicyclo[2.2.1]heptan-7-yl)methanone], the Ki is 0.624 µM in assay [1] (rOX1 Ki (nm)) and 3.3 µM in assay [2] (setting [3]).
In the case of `CCOc1ccc(C)nc1C(=O)N1C2CCC1C(COc1ccc(C(F)(F)F)cn1)C2` (racemic) [Example 48, (±)-(3-ethoxy-6-methylpyridin-2-yl)(2-(((5-(trifluoromethyl)pyridin-2-yl)oxy)methyl)-7-azabicyclo[2.2.1]heptan-7-yl)methanone], the inhibition constant (Ki) in assay [1] (setting [4]) came out at 3.9 µM; in assay [2] (hOX2 Ki (nm)), 4.7 µM.
Consider `Cc1cnc(C(=O)N2C3CCC2C(Nc2ccc(C(F)(F)F)cn2)C3)c(-n2nccn2)c1` (racemic) [Example 188, (±)-(5-methyl-3-(2H-1,2,3-triazol-2-yl)pyridin-2-yl)(2-(5-(trifluoromethyl)pyridin-2-yl)amino)-7-azabicyclo[2.2.1]heptan-7-yl)methanone], for which the Ki in assay [1] (rOX1 Ki (nm)) was determined as 0.295 µM; in assay [2] (setting [3]), 1.5 µM.
Take `COc1c(F)cccc1C(=O)N1C2CCC1C(Nc1ncc(C(F)(F)F)cn1)C2` (racemic) [Example 222, (±)-(3-fluoro-2-methoxyphenyl)(2-(5-(trifluoromethyl)pyrimidin-2-yl)amino)-7-azabicyclo[2.2.1]heptan-7-yl)methanone]: the Ki in assay [1] (rOX1 Ki (nm)) was 4.8 µM; in assay [2] (setting [3]), > 10 µM.
`Cc1ccc(-n2nccn2)c(C(=O)N2C3CCC2C(COc2ccncc2)C3)n1` (racemic) [Example 57, (±)-(6-methyl-3-(2H-1,2,3-triazol-2-yl)pyridin-2-yl)(2-((pyridin-4-yloxy)methyl)-7-azabicyclo[2.2.1]heptan-7-yl)methanone]: the Ki in assay [1] (setting [4]) amounted to 1 µM; in assay [2] (setting [3]), 7.3 µM.
As to `Cc1ccc(N2CCN(C)CC2)c(C(=O)N2C3CCC2C(COc2ccccn2)C3)n1` (racemic) [Example 85, (±)-(6-methyl-3-(4-methylpiperazin-1-yl)pyridin-2-yl)(2-((pyridin-2-yloxy)methyl)-7-azabicyclo[2.2.1]heptan-7-yl)methanone], the Ki in assay [1] (setting [4]) and in assay [2] (setting [3]) was > 10 µM throughout.
As to `O=C(c1cccc(F)c1-c1ccnnc1)N1[C@@H]2CC[C@H]1[C@H](Nc1cnc(C(F)(F)F)cn1)C2` [Example 264, (3-fluoro-2-(pyridazin-4-yl)phenyl)((1S,2R,4R)-2-((5-(trifluoromethyl)pyrazin-2-yl)amino)-7-azabicyclo[2.2.1]heptan-7-yl)methanone], the results for the Ki in assay [1] (setting [4]) and in assay [2] (setting [3]) were 1.4 µM and > 10 µM, respectively.
Taken in the same sequence, the figures for `Cn1cc(C(=O)N2C3CCC2C(COc2ccccn2)C3)c(-c2ccccc2)n1` (racemic) [Example 78, (±)-(1-methyl-3-phenyl-1H-pyrazol-4-yl)(2-((pyridin-2-yloxy)methyl)-7-azabicyclo[2.2.1]heptan-7-yl)methanone] were 0.418 µM and 3.1 µM.
Consider `Cc1ccc(-n2nccn2)c(C(=O)N2C3CCC2C(COc2ccncn2)C3)n1` (racemic) [Example 61, (±)-(6-methyl-3-(2H-1,2,3-triazol-2-yl)pyridin-2-yl)(2-((pyrimidin-4-yloxy)methyl)-7-azabicyclo[2.2.1]heptan-7-yl)methanone], for which the Ki is 2.8 µM in assay [1] (rOX1 Ki (nm)) and > 10 µM in assay [2] (hOX2 Ki (nm)).
On to `Cc1coc(-c2ccc(C)nc2C(=O)N2C3CCC2C(COc2ccc(F)cn2)C3)n1` (racemic) [Example 177, (±)-(2-(((5-fluoropyridin-2-yl)oxy)methyl)-7-azabicyclo[2.2.1]heptan-7-yl)(6-methyl-3-(4-methyloxazol-2-yl)pyridin-2-yl)methanone], for which the results for the inhibition constant Ki in assay [1] (setting [4]) and in assay [2] (setting [3]) were 0.535 µM and 4 µM, respectively.
`Cc1cccc(-c2ncccn2)c1C(=O)N1C2CCC1C(COc1ccc(F)cn1)C2` (racemic) [Example 123, (±)-(2-(((5-fluoropyridin-2-yl)oxy)methyl)-7-azabicyclo[2.2.1]heptan-7-yl)(2-methyl-6-(pyrimidin-2-yl)phenyl)methanone]: the Ki was found to be 0.4 µM in assay [1] (rOX1 Ki (nm)) and 0.286 µM in assay [2] (setting [3]).
